# Experimental data as given in patent publication US12195482B1 (Arcus Biosciences, Inc., priority 2022, dated 2025).
# Assays:
# recombinant human MER = target: T1, recombinant human MER (Homo sapiens, UniProt Q12866); assay: Biochemical potency, HTRF KinEASE-TK kinase assay; details: 1 nM MER, 700 μM ATP
# T1 construct: purchased Invitrogen
# T1 sequence (Q12866 21-999): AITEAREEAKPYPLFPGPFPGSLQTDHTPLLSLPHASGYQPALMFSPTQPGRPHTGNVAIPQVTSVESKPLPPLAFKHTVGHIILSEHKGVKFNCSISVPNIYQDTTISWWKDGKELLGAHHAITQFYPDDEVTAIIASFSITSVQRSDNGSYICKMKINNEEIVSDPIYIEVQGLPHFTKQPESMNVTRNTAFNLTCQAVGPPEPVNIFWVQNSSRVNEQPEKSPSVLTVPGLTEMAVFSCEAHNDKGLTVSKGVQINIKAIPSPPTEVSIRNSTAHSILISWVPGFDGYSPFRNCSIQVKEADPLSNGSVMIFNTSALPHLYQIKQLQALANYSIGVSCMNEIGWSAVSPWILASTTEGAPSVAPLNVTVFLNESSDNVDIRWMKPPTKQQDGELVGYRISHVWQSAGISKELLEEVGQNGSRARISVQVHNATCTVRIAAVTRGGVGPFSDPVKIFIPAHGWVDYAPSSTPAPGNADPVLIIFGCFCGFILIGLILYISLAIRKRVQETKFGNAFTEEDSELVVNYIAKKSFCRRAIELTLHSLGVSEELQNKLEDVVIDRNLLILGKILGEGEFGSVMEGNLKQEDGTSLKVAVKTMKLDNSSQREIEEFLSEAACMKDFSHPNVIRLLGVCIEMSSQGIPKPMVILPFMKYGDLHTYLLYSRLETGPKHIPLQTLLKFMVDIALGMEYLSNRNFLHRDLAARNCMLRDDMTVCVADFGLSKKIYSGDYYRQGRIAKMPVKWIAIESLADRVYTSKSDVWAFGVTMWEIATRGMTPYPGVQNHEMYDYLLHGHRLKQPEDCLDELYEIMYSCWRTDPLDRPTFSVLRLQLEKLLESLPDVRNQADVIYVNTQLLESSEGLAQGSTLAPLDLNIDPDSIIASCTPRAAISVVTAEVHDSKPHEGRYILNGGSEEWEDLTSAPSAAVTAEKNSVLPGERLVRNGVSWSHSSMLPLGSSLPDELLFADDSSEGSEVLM
# Summary of the method: (§1)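 Steps: compound plus kinase, 1 h RT; add ATP (700 µM final) and biotin-TK substrate (800 nM final); run 2 h RT; stop into streptavidin-XL665/anti-phospho cryptate detection mix, 1 h; read 665/620. AXL at 5 nM, TYRO3 and MER at 1 nM.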
# recombinant human TYRO3 = target: T2, recombinant human TYRO3 (Homo sapiens, UniProt Q06418); assay: Biochemical potency, HTRF KinEASE-TK kinase assay; details: 1 nM TYRO3, 700 μM ATP
# T2 construct: purchased Invitrogen
# T2 sequence (Q06418 41-890): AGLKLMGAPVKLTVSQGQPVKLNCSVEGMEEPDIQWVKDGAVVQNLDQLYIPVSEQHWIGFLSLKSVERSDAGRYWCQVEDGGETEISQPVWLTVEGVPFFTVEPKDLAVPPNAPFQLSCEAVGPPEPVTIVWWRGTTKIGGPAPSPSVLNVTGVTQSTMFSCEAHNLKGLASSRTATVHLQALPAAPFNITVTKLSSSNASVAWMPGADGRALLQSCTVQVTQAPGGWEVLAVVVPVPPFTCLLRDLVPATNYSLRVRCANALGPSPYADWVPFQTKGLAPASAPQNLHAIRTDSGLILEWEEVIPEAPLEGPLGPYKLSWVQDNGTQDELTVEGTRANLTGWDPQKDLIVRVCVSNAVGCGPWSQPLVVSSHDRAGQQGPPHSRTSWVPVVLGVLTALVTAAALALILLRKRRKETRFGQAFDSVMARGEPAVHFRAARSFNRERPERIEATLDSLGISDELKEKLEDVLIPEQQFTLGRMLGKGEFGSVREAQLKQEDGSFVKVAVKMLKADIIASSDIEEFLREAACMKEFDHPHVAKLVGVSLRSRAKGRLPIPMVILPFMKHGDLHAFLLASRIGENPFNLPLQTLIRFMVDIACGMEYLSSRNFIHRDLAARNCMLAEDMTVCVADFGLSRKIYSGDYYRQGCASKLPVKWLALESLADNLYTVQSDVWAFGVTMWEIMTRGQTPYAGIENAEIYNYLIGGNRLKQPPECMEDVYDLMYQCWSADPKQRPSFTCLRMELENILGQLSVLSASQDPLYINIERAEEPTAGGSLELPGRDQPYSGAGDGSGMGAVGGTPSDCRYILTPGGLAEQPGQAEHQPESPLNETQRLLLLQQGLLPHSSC
# Summary of the method: as §1
IC50 (recombinant human MER) [nM],IC50 (recombinant human TYRO3) [nM],Structure (SMILES)
100 to 1000,100 to 1000,"Cc1cnc(-c2ccc(-c3c[nH]c4ncc(-c5ccc6c(c5)CC[C@@H](N5CCCC5)CC6)cc34)cc2)c(C)n1 [Example 59, 3,5-Dimethyl-2-(4-{5-[(7S)-7-(pyrrolidin-1-yl)-6,7,8,9-tetrahydro-5H-benzo[7]annulen-2-yl]-1H-pyrrolo[2,3-b]pyridin-3-yl}phenyl)pyrazine]"
100 to 1000,100 to 1000,"Cc1cnc(C)c(-c2ccc(-c3c[nH]c4ncc(-c5ccc6c(c5)CC[C@@H](N5C7COCC5C7)CC6)cc34)cc2)n1 [Example 53, 6-[(7S)-2-{3-[4-(3,6-Dimethylpyrazin-2-yl)phenyl]-1H-pyrrolo[2,3-b]pyridin-5-yl}-6,7,8,9-tetrahydro-5H-benzo[7]annulen-7-yl]-3-oxa-6-azabicyclo[3.1.1]heptane]"
100 to 1000,100 to 1000,"Fc1cccnc1-c1ccc(-c2c[nH]c3ncc(-c4ccc5c(c4)CC[C@@H](N4C6COCC4C6)CC5)cc23)cc1 [Example 42, 6-[(7S)-2-{3-[4-(3-Fluoropyridin-2-yl)phenyl]-1H-pyrrolo[2,3-b]pyridin-5-yl}-6,7,8,9-tetrahydro-5H-benzo[7]annulen-7-yl]-3-oxa-6-azabicyclo[3.1.1]heptane]"
< 100,< 100,"Cc1cccnc1-c1ccc(-c2c[nH]c3ncc(-c4ccc5c(c4)CC[C@@H](N4C6COCC4C6)CC5)cc23)cc1 [Example 1, 6-[(7S)-2-{3-[4-(3-Methylpyridin-2-yl)phenyl]-1H-pyrrolo[2,3-b]pyridin-5-yl}-6,7,8,9-tetrahydro-5H-benzo[7]annulen-7-yl]-3-oxa-6-azabicyclo[3.1.1]heptane]"

# More lines, now with the values behind:
Structure (SMILES),IC50 (recombinant human MER) [nM],IC50 (recombinant human TYRO3) [nM]
"Cc1cc(C)c(-c2ccc(-c3n[nH]c4ncc(-c5ccc6c(c5)CC[C@@](C)(N5CCC[C@H]5C)CC6)cc34)cc2)nn1 [Example 78, 4,6-Dimethyl-3-(4-{5-[(7S)-7-methyl-7-[(2R)-2-methylpyrrolidin-1-yl]-6,7,8,9-tetrahydro-5H-benzo[7]annulen-2-yl]-1H-pyrazolo[3,4-b]pyridin-3-yl}phenyl)pyridazine]",< 100,< 100
"CC(C)(C#N)c1cccnc1-c1ccc(-c2n[nH]c3ncc(-c4ccc5c(c4)CC[C@@H](N4C6COCC4C6)CC5)cc23)cc1 [Example 85, 2-Methyl-2-[2-[4-[5-[(7S)-7-(3-oxa-6-azabicyclo[3.1.1]heptan-6-yl)-6,7,8,9-tetrahydro-5H-benzo[7]annulen-3-yl]-1H-pyrazolo[3,4-b]pyridine-3-yl]phenyl]pyridine-3-yl]propanenitrile]",100 to 1000,100 to 1000
"N#Cc1cccnc1-c1ccc(-c2c[nH]c3ncc(-c4ccc5c(c4)CC[C@@H](N4C6COCC4C6)CC5)cc23)cc1 [Example 46, 2-(4-{5-[(7S)-7-{3-Oxa-6-azabicyclo[3.1.1]heptan-6-yl}-6,7,8,9-tetrahydro-5H-benzo[7]annulen-2-yl]-1H-pyrrolo[2,3-b]pyridin-3-yl}phenyl)pyridine-3-carbonitrile]",100 to 1000,100 to 1000
"FC(F)c1cccnc1-c1ccc(-c2n[nH]c3ncc(-c4ccc5c(c4)CC[C@@H](N4C6COCC4C6)CC5)cc23)cc1 [Example 89, 6-[(7S)-3-[3-[4-[3-(Difluoromethyl)pyridin-2-yl]phenyl]-1H-pyrazolo[3,4-b]pyridin-5-yl]-6,7,8,9-tetrahydro-5H-benzo[7]annulen-7-yl]-3-oxa-6-azabicyclo[3.1.1]heptane]",100 to 1000,100 to 1000
